Measurements reported in patent publication US20250101017A1, “SALT CRYSTAL FORM AND FREE BASE CRYSTAL FORM OF KINASE INHIBITOR” (CYTOSINLAB THERAPEUTICS CO., LTD., priority 2022, published 2025).
Values after ≈ are worked out from the molar mass of the structure shown. Where two headings read alike, the source gives them in different places.

Columns and labels:
Assay type in all cases: physicochemical
[1] = Solubility at 37° C. in buffer solutions with different pH (about 10 mg in 1 ml, 2 h and 24 h); filtrate concentration and pH, XRPD of remaining solid; conditions: for solubility at 2 h / solubility at 24 h: 37 °C, thermodynamic from solid; for solubility at 2 h: read-out: Solubility at 37° C. (mg/ml) 2 h; for solubility at 24 h: read-out: Solubility at 37° C. (mg/ml) 24 h
Experimental: Approximately 10 mg of malate crystal form VII-A and free base Form A were weighed separately, and 1 ml of buffer solutions with different pH were added to make the solution supersaturated, and the mixtures were stirred at 37° C. for 2 h and 24 hours. The samples were filtered, and the filtrates were measured to determine the concentration and pH value, and the remaining solid was subjected to XRPD determination. The specific results were as follows: […]

[2] = Dynamic moisture adsorption (DVS), hygroscopicity; conditions: DVS; for moisture absorption weight gain: 80% RH humidity
Experimental: DSV pattern determination method: Dynamic moisture adsorption was performed using Intrinsic DVS. In step mode, the sample is subjected to loop testing at a relative humidity of 0-90%. The sample is analyzed at 10% RH. The dm/dt is set to 0.002 to achieve equilibrium between the sample and the room environment.
Approximately 250 mg of API was weighed and added into a 4 ml glass vial, and 2.5 ml of ethyl acetate was added. The mixture was stirred overnight under magnetic stirring at 50° C., cooled to room temperature, and then filtered, and the obtained solid was dried in vacuum overnight in a 50° C. oven. The resulting solid was free base crystal form Form B. The free base crystal form Form B was subjected to various characterization.

[3] = Competitive pulping of API (free base Form A) and Form B in saturated DCM or water solution at 50° C., XRPD
Experimental: A saturated solution of API (free base Form A) in DCM and water was prepared. Approximately 10 mg of API (free base Form A) and free base crystal form Form B was weighed respectively and added into a 4 ml glass bottle, and 1 mL of the saturated solution was added. […] The resulting solid was subjected to XRPD testing.

With `CCc1nc2c(N)ncc(-c3ccc(N4CCC(N5CCN(CC)CC5)CC4)c(OC)c3)c2nc1NC1CCOCC1` [Free base Form A, 3-ethyl-8-(4-(4-(4-ethylpiperazin-1-yl)piperidin-1-yl)-3-methoxyphenyl)-N2-(tetrahydro-2H-pyran-4-yl) pyridino [3,4-b]pyrazine-2,5-diamine] the “pH (24 h)” value ([1]; filtrate, medium pH 1.2) was 1.463, the “pH (24 h)” value ([1]; filtrate, medium pH 3.0) was 3.683 and the “pH (24 h)” value ([1]; filtrate, medium pH 4.5) was 4.520. For the same compound, the “pH (24 h)” value ([1]; filtrate, medium pH 6.8) was 6.180, the “pH (24 h)” value ([1]; filtrate, medium pH 7.4) was 6.664 and the “Solubility at 37° C. (mg/ml) 2 h” value ([1]; medium FaSSIF, 2 h) was 1.234 mg/mL (≈ 2150 µM). For the same compound, the “Solubility at 37° C.” value ([1]; medium FaSSIF, 2 h, listed as API) was 1234 µg/mL (≈ 2150 µM), the “Solubility at 37° C. (mg/ml) 24 h” value ([1]; medium FaSSIF, 24 h) was 0.983 mg/mL (≈ 1710 µM) and the “Solubility at 37° C.” value ([1]; medium FaSSIF, 24 h, listed as API) was 983 µg/mL (≈ 1710 µM). For the same compound, the Crystal form ([1]; medium FaSSIF, XRPD of remaining solid, listed as API) was “Form A”, the “pH (24 h)” value ([1]; medium FaSSIF, filtrate, 37° C., listed as API) was 5.434 and the “Solubility at 37° C.” value ([1]; medium FeSSIF, 2 h) was >10000 µg/mL. For the same compound, the “Solubility at 37° C. (mg/ml) 2 h” value ([1]; medium FeSSIF, 2 h) was >10 mg/mL, the “Solubility at 37° C.” value ([1]; medium FeSSIF, 24 h) was >10000 µg/mL and the “Solubility at 37° C. (mg/ml) 24 h” value ([1]; medium FeSSIF, 24 h) was >10 mg/mL. For the same compound, the “pH (24 h)” value ([1]; medium FeSSIF, filtrate, 37° C., listed as API) was 4.992, the “Solubility at 37° C. (mg/ml) 2 h” value ([1]; medium H2O, 2 h) was 0.0365 mg/mL (≈ 63.5 µM) and the “Solubility at 37° C.” value ([1]; medium H2O, 2 h, listed as API) was 36.5 µg/mL (≈ 63.5 µM). For the same compound, the “Solubility at 37° C. (mg/ml) 24 h” value ([1]; medium H2O, 24 h) was 0.0046 mg/mL (≈ 8 µM), the “Solubility at 37° C.” value ([1]; medium H2O, 24 h, listed as API) was 4.6 µg/mL (≈ 8 µM) and the Crystal form ([1]; medium H2O, XRPD of remaining solid, listed as API) was “Form A”. The “pH (24 h)” value ([1]; medium H2O, filtrate, 37° C., listed as API) was 4.607, the “Solubility at 37° C.” value ([1]; medium SGF, 2 h) was >10000 µg/mL and the “Solubility at 37° C. (mg/ml) 2 h” value ([1]; medium SGF, 2 h) was >10 mg/mL. The “Solubility at 37° C.” value ([1]; medium SGF, 24 h) was >10000 µg/mL, the “Solubility at 37° C. (mg/ml) 24 h” value ([1]; medium SGF, 24 h) was >10 mg/mL and the “pH (24 h)” value ([1]; medium SGF, filtrate, 37° C., listed as API) was 1.494. For the same compound, the “pH (24 h)” value ([1]; medium pH 1.2, filtrate, 37° C., listed as API) was 1.463, the “pH (24 h)” value ([1]; medium pH 3.0, filtrate, 37° C., listed as API) was 3.683 and the “pH (24 h)” value ([1]; medium pH 4.5, filtrate, 37° C., listed as API) was 4.520. For the same compound, the “Solubility at 37° C. (mg/ml) 2 h” value ([1]; medium pH 6.8, 2 h) was 0.294 mg/mL (≈ 512 µM), the “Solubility at 37° C.” value ([1]; medium pH 6.8, 2 h, listed as API) was 294 µg/mL (≈ 512 µM) and the “Solubility at 37° C. (mg/ml) 24 h” value ([1]; medium pH 6.8, 24 h) was 0.271 mg/mL (≈ 471 µM). For the same compound, the “Solubility at 37° C.” value ([1]; medium pH 6.8, 24 h, listed as API) was 271 µg/mL (≈ 471 µM), the Crystal form ([1]; medium pH 6.8, XRPD of remaining solid, listed as API) was “Form A” and the “pH (24 h)” value ([1]; medium pH 6.8, filtrate, 37° C., listed as API) was 6.180. For the same compound, the “Solubility at 37° C. (mg/ml) 2 h” value ([1]; medium pH 7.4, 2 h) was 0.012 mg/mL (≈ 20.9 µM), the “Solubility at 37° C.” value ([1]; medium pH 7.4, 2 h, listed as API) was 12 µg/mL (≈ 20.9 µM) and the “Solubility at 37° C. (mg/ml) 24 h” value ([1]; medium pH 7.4, 24 h) was 0.016 mg/mL (≈ 27.8 µM). The “Solubility at 37° C.” value ([1]; medium pH 7.4, 24 h, listed as API) was 16 µg/mL (≈ 27.8 µM), the Crystal form ([1]; medium pH 7.4, XRPD of remaining solid, listed as API) was “Form A” and the “pH (24 h)” value ([1]; medium pH 7.4, filtrate, 37° C., listed as API) was 6.664. The solubility at 2 h ([1]; pH 1.2 buffer solution, pH 1.2, simulated gastric fluid, medium pH 1.2, 2 h) was > 10 mg/mL, the solubility at 24 h ([1]; pH 1.2 buffer solution, pH 1.2, simulated gastric fluid, medium pH 1.2, 24 h) was > 10 mg/mL and the solubility at 2 h ([1]; pH 3.0 buffer solution, pH 3, aqueous buffer, medium pH 3.0, 2 h) was > 10 mg/mL. For the same compound, the solubility at 24 h ([1]; pH 3.0 buffer solution, pH 3, aqueous buffer, medium pH 3.0, 24 h) was > 10 mg/mL, the Crystal form ([1]; remaining solid, medium FaSSIF, XRPD) was “Free base” and the Crystal form ([1]; remaining solid, medium H2O, XRPD) was “Free base”. The Crystal form ([1]; remaining solid, medium pH 6.8, XRPD) was “Free base”, the Crystal form ([1]; remaining solid, medium pH 7.4, XRPD) was “Free base” and the “moisture absorption weight gain” value [2] was 1.05%. For the same compound, the “moisture absorption weight gain” value ([2]; listed as API) was 11.12%, the hygroscopicity [2] was “slight hygroscopicity” and the “solid crystal form obtained by competitive pulping” value ([3]; API and Form B together in DCM, 50° C., 3 days, XRPD) was “tended to approach Form L”. For the same compound, the “appearance after competitive pulping” value ([3]; API and Form B together in DCM, after 5 days of beating) was “became oily”, the “crystal form obtained by competitive pulping” value ([3]; API and Form B together in water, 50° C., 3 days, XRPD) was “a mixture of Form B and API” and the XRPD results ([3]; competitive pulping of API and Form B, DCM, 50° C., 3 days) was “Form K”.
